From patent EP4759810A1, “PROTAC TARGETING BCL-XL PROTEIN AND USE THEREOF” (BEIJING SUNCELL BIO-MEDICAL CO., LTD., priority 2023, dated 2025)
Read-outs that look alike come from different tables or passages of the source.

Legend:
Molt-4 cells = experiment: Molt-4 cell killing activity test (CCK-8); assay type: cell-based; conditions: for EC50: Homo sapiens
In short: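 Molt-4 cells in RPMI-1640 with 10% FBS were exposed to compounds at 0.001–3 µM final, triplicate wells, for three days at 37°C. Viability was read by CCK-8 absorbance at 450 nm after 0.5–2 h, expressed relative to blank control.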

HEF cells = experiment: Senescent cell killing activity test, HEF cell model (CCK-8); assay type: cell-based, human; conditions: for activity for killing senescent cells at lower concentrations compared to A-1331852: HEF cell model, 0.01 µM and 0.03 µM; for killing senescent HEF cells: etoposide-induced senescent vs normal HEF cells, Figures 3A-3F; for toxicity on normal non-senescent HEF cells: higher concentration (25 µM)
Bcl-xL protein = target: T1, Bcl-xL protein (Homo sapiens, UniProt Q07817); experiment: Degradation experiment of Bcl-xL target protein (Western blot in Molt-4 cells); assay type: cell-based; conditions: 100 nM, 0, 2, 6, 16 h, GAPDH internal control, Figure 4
T1 construct: host or cells: Molt-4 cells
Protocol: Actively growing and healthy Molt-4 cells were subcultured into a fresh RPMI-1640 medium containing 10% fetal bovine serum, and each PROTAC molecule was added thereto at a final concentration of 100 nM. After drug treatment for the specified times (0, 2, 6, and 16 hours), the cells were collected, the supernatant was discarded by centrifugation, and the cells were washed twice with pre-cooled PBS buffer. Total protein was extracted with a lysis buffer (Servicebio, G2002-100ML), and the protein concentration was normalized by using a BCA protein quantification kit (Servicebio, G2026). Protein samples were mixed with a protein-loading buffer and incubated at 95°C for 5 minutes. Western blotting experiments were performed by using the following antibodies: Bcl-xL (Abcam, catalog number ab32370), diluted at 1:500; GAPDH antibody (Servicebio, catalog number GB15004), diluted at 1:1000; and horseradish peroxidase-conjugated goat anti-rabbit secondary antibody (Servicebio, catalog number GB23303), diluted at 1:5000.

[1] = 72 h, Molt-4 cells, three days, CCK-8, read-out: EC50 (Molt-4)
[2] = Bcl-xL-positive Molt-4 cells, read-out: cellular activity / killing activity (Molt-4 cells)

T1 sequence (Q07817 whole entry): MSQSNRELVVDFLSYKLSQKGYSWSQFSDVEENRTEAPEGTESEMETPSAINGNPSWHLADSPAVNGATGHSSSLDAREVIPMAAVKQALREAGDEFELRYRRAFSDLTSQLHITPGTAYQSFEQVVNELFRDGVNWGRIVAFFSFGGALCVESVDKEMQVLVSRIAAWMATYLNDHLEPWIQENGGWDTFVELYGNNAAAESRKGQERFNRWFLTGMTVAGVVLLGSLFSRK

SMILES: O=C1CCC(N2C(=O)c3cccc(NCCN4CCC(CN5CCN(CC#Cc6ccc(OCCCc7ccc(N8CCc9cccc(C(=O)Nc%10nc%11ccccc%11s%10)c9C8)nc7C(=O)O)c(F)c6)CC5)CC4)c3C2=O)C(=O)N1 (stereo not shown) [APQ2]
- killing Molt-4 cells at different concentrations (Figure 1), in words (Molt-4 cells; Figure 1, 0.001-3 µM, comparison with control molecules): comparable to A-1331852
- EC50 (Molt-4 cells; [1]): < 10 nM
- EC50 (Molt-4 cells; [2]): < 10 nM
- activity for killing senescent cells at lower concentrations compared to A-1331852 (HEF cells): better activity for killing senescent cells at lower concentrations
- killing senescent HEF cells (HEF cells): efficiently and selectively kill senescent HEF cells
- toxicity on normal non-senescent HEF cells (HEF cells): no toxicity on normal non-senescent HEF cells
- degradation of the Bcl-xL protein (Bcl-xL protein): had the ability to degrade the Bcl-xL protein

SMILES: O=C1CCN(c2ccc(N3CCC(CN4CCN(CC#Cc5ccc(OCCCc6ccc(N7CCc8cccc(C(=O)Nc9nc%10ccccc%10s9)c8C7)nc6C(=O)O)c(F)c5)CC4)CC3)cc2)C(=O)N1 [APQ10]
- EC50 (Molt-4 cells; [1]): < 10 nM
- EC50 (Molt-4 cells; [2]): < 10 nM
- activity for killing senescent cells at lower concentrations compared to A-1331852 (HEF cells): better activity for killing senescent cells at lower concentrations
- killing senescent HEF cells (HEF cells): efficiently and selectively kill senescent HEF cells
- toxicity on normal non-senescent HEF cells (HEF cells): no toxicity on normal non-senescent HEF cells
- degradation of the Bcl-xL protein (Bcl-xL protein): had the ability to degrade the Bcl-xL protein
